Read-outs that look alike come from different tables or passages of the source.
Experiments:
CDK2/Cyclin E1 = CDK2/Cyclin E1 (Homo sapiens, UniProt P24941); assay: CDK2/Cyclin E1 TR-FRET biochemical assay (0.060 mM ATP); conditions: 120 minutes reaction
Protocol: (§1) Compounds disclosed herein were tested for inhibition of CDK2/Cyclin E1 or CDK1/Cyclin B1 kinase in an assay based on the time-resolved fluorescence-resonance energy transfer (TR-FRET) methodology. The assay was carried out in 384-well low volume black plates in a reaction mixture containing CDK2/Cyclin E1 or CDK1/Cyclin B1, 0.060 mM ATP for CDK2/Cyclin E1 or 0.015 mM ATP for CDK1/Cyclin B1, 0.15 μM Rb (Ser780)-biotin substrate and 0-10 μM compound in buffer containing 50 mM HEPES pH7.0, 0.02% NaN3, 0.01% BSA, 0.1 mM Orthovanadate, 50 mM MgCl2, 1 mM DTT and 0.005% Tween-20. The kinase was incubated with compound for 60 minutes at room temperature and the reaction was initiated by the addition of ATP and Rb (Ser780)-biotin substrate. After reaction at room temperature for 120 minutes, an equal volume of stop/detection solution was added according to the manufacture's instruction (Cisbio Bioassays). The stop/detection solution contained Streptavidin-XL665 and Anti-pRb (Ser780) mAb-Eu Cryptate in Detection buffer (Cisbio Bioassays). Plates were incubated at room temperature for 60 minutes, and the TR-FRET signals (ex337 nm, em665 nm/620 nm) were recorded on a PHERAstar FSX plate reader (BMG Labtech). The inhibition percentage of CDK2/Cyclin E1 or CDK1/Cyclin B1 kinase activity in presence of increasing concentrations of compounds was calculated based on the ratio of fluorescence at 665 nm to that at 620 nm. The IC50 for each compound was derived from fitting the data to the four-parameter logistic equation by Dotmatics.

CDK1/Cyclin B1 = CDK1/Cyclin B1 (Homo sapiens, UniProt P06493); assay: CDK1/Cyclin B1 TR-FRET biochemical assay (0.015 mM ATP); conditions: 120 minutes reaction
CDK1/Cyclin B1, sequence (P06493 whole entry): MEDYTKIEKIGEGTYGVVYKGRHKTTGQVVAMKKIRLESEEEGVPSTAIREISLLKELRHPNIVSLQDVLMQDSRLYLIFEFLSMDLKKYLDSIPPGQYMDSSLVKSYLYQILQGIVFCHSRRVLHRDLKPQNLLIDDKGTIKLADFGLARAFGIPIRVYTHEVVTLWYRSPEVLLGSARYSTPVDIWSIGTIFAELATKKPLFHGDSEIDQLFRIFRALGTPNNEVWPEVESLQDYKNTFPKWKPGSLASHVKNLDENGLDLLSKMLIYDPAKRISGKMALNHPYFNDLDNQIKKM
CDK1/Cyclin B1, sequence (P14635 whole entry partner): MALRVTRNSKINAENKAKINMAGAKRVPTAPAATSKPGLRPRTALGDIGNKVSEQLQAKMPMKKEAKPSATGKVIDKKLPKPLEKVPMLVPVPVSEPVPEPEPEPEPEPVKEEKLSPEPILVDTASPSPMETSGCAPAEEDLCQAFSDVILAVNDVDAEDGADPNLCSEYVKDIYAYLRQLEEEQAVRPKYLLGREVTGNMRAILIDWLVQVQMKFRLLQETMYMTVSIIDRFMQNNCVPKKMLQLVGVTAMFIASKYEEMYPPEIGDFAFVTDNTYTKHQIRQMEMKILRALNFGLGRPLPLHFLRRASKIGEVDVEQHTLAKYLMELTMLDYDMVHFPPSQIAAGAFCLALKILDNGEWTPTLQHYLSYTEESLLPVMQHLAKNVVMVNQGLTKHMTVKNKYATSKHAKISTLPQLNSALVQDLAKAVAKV
Protocol: as §1

HEK-293 cells = assay: HEK-293 cell cytotoxicity detection (CellTiter-Glo); type: cell-based; conditions: incubation of 72 h, CellTiter-Glo luminescence
Protocol: HEK-293 cells were treated with compounds diluted in 0.4% DMSO, dilution was done according to the following protocol: (1) making 250× stock solution in DMSO from 10 mM by 4-fold dilution, total 8 doses were included; (2) making 2 solution in cell culture medium by transferring 1 μl 250× stock solution into 124 μl medium; (3) adding 50 μl of 2× solution to cells for incubation of 72 h.
25 μl of the CellTiter-Glo® Reagent [(PromegaCat #G9242)] was added to each well in the 96-well plate. The contents were mixed for 2 minutes on an orbital shaker to induce cell lysis. The plate was then allowed to incubate at room temperature for 10 minutes to stabilize luminescent signal. Luminescence was recorded on BMG PheraStar with luminescence protocol.
The IC50 value of a compound can be obtained by fitting the following equation: […]
Wherein, X and Y are known values, and IC50, Hillslope, Top and Bottom are the parameters obtained by fitting with software. Y is the inhibition percentage (calculated from the equation), X is the concentration of the compound; IC50 is the concentration of the compound when the 50% inhibition is reached. The smaller the IC50 value is, the stronger the inhibitory ability of the compound is. Vice versa, the higher the IC50 value is, the weaker the ability the inhibitory ability of the compound is; Hillslope represents the slope of the fitted curve, generally around 1*; Bottom represents the minimum value of the curve obtained by data fitting, which is generally 0%±20%; Top represents the maximum value of the curve obtained by data fitting, which is generally 100%±20%. The experimental data were fitted by calculating and analyzing with Dotmatics data analysis software.

SMILES	IC50 (CDK2/Cyclin E1)	IC50 (CDK1/Cyclin B1)	IC50 (HEK-293 cells; Homo sapiens, HEK293, 72 h)	IC50 (HEK-293 cells; read-out: HEK293 IC50)
CC(C)NC(=O)O[C@H]1CC[C@@H](c2cc(Nc3ccc4c(c3F)CS(=O)(=O)C4)n[nH]2)C1 (relative stereo) [Example 8b, cis-3-(3-((4-fluoro-2,2-dioxido-1,3-dihydrobenzo[c]thiophen-5-yl)amino)-1H-pyrazol-5-yl)cyclopentyl isopropylcarbamate]	0.5 nM	7.9 nM	462 nM	–
CC1(NC(=O)O[C@H]2CC[C@@H](c3cc(Nc4ccc5c(c4F)CS(=O)(=O)C5)n[nH]3)C2)CC1 (relative stereo) [Example 11, cis-3-(3-((4-fluoro-2,2-dioxido-1,3-dihydrobenzo[c]thiophen-5-yl)amino)-1H-pyrazol-5-yl)cyclopentyl (1-methylcyclopropyl)carbamate]	0.3 nM	3.3 nM	317 nM	–
COCC(C)(C)NC(=O)O[C@H]1CC[C@@H](c2cc(Nc3ccc4c(c3F)CS(=O)(=O)C4)n[nH]2)C1 (relative stereo) [Example 14, cis-3-(3-((4-fluoro-2,2-dioxido-1,3-dihydrobenzo[c]thiophen-5-yl)amino)-1H-pyrazol-5-yl)cyclopentyl (1-methoxy-2-methylpropan-2-yl)carbamate]	0.6 nM	10 nM	> 10000 nM	–
CC(C)NC(=O)OC1CCC(c2cc(Nc3ccc4c(c3F)CCS4(=O)=O)n[nH]2)C1 (single isomer, unassigned) [Example 2a, cis-3-(3-((4-fluoro-1,1-dioxido-2,3-dihydrobenzo[b]thiophen-5-yl)amino)-1H-pyrazol-5-yl)cyclopentyl isopropylcarbamate]	16 nM	591 nM	> 10000 nM	–
CC(C)NC(=O)OC1CCC(c2cc(Nc3ccc4c(c3F)CCS4(=O)=O)n[nH]2)C1 (single isomer, unassigned) [Example 2b, cis-3-(3-((4-fluoro-1,1-dioxido-2,3-dihydrobenzo[b]thiophen-5-yl)amino)-1H-pyrazol-5-yl)cyclopentyl isopropylcarbamate]	4.8 nM	207 nM	–	> 10000 nM
CC(C)NC(=O)OC1CCC(c2cc(Nc3ccc4c(c3F)S(=O)(=O)CC4)n[nH]2)C1 (single isomer, unassigned) [Example 3a, cis-3-(3-((7-fluoro-1,1-dioxido-2,3-dihydrobenzo[b]thiophen-6-yl)amino)-1H-pyrazol-5-yl)cyclopentyl isopropylcarbamate]	4.1 nM	132 nM	–	1780 nM
CC(C)NC(=O)OC1CCC(c2cc(Nc3ccc4c(c3F)S(=O)(=O)CC4)n[nH]2)C1 (single isomer, unassigned) [Example 3b, cis-3-(3-((7-fluoro-1,1-dioxido-2,3-dihydrobenzo[b]thiophen-6-yl)amino)-1H-pyrazol-5-yl)cyclopentyl isopropylcarbamate]	1.9 nM	31 nM	–	677 nM
CC(C)NC(=O)O[C@@H]1CC[C@H](c2cc(Nc3ccc4c(c3F)CS(=O)(=O)C4)n[nH]2)C1 (single isomer, unassigned) [Example 8a, cis-3-(3-((4-fluoro-2,2-dioxido-1,3-dihydrobenzo[c]thiophen-5-yl)amino)-1H-pyrazol-5-yl)cyclopentyl isopropylcarbamate]	0.7 nM	30 nM	514 nM	–
CCCNC(=O)OC1CCC(c2cc(Nc3ccc4c(c3F)CS(=O)(=O)C4)n[nH]2)C1 (single isomer, unassigned) [Example 9a, cis-3-(3-((4-fluoro-2,2-dioxido-1,3-dihydrobenzo[c]thiophen-5-yl)amino)-1H-pyrazol-5-yl)cyclopentyl propylcarbamate]	0.8 nM	50 nM	–	> 10000 nM
CCCNC(=O)OC1CCC(c2cc(Nc3ccc4c(c3F)CS(=O)(=O)C4)n[nH]2)C1 (single isomer, unassigned) [Example 9b, cis-3-(3-((4-fluoro-2,2-dioxido-1,3-dihydrobenzo[c]thiophen-5-yl)amino)-1H-pyrazol-5-yl)cyclopentyl propylcarbamate]	0.7 nM	12 nM	–	4410 nM
CC[C@H](C)NC(=O)OC1CCC(c2cc(Nc3ccc4c(c3F)S(=O)(=O)CC4)n[nH]2)C1 (stereo in doubt) [Example 5, cis-3-(3-((7-fluoro-1,1-dioxido-2,3-dihydrobenzo[b]thiophen-6-yl)amino)-1H-pyrazol-5-yl)cyclopentyl ((S)-sec-butyl)carbamate]	5 nM	117 nM	1650 nM	–
CC[C@H](C)NC(=O)OC1CCC(c2cc(Nc3ccc4c(c3F)CS(=O)(=O)C4)n[nH]2)C1 (stereo in doubt) [Example 10, cis-3-(3-((4-fluoro-2,2-dioxido-1,3-dihydrobenzo[c]thiophen-5-yl)amino)-1H-pyrazol-5-yl)cyclopentyl ((S)-sec-butyl)carbamate]	0.4 nM	5 nM	203 nM	–

From US20260176282A1, “BICYCLIC COMPOUNDS AS CDK INHIBITORS” (BEONE MEDICINES I GMBH, priority 2023, published 2026)
